Values joined by “and” are separate entries in the source; they are usually repeats but may differ in a detail not shown here. Equal values may be shown once. Residues, ends and D or L forms follow the SMILES beside them. *: point of attachment. CH2Cl = ClC*

From patent publication US7850970B2, “Inhibitors of serine protease activity and their use in methods and compositions for treatment of bacterial infections” (priority 2003, dated 2010) come the findings set out here.

Assay [1] relates to MAC (strain Mycobacterium avium 9141). Put plainly: MAC infection of human monocyte-derived macrophages, colony counts. The format is cell-based. The note with it: FIG. 1.
For assay [2], the system named is TB (strain H37RV). The format is cell-based, m. tuberculosis. The settings on record: AAT 5.0 mg/ml-exposed MDM; control MDM (no AAT) 20% and 17%.
Assay [3] concerns TB (strain H37RV). Type of assay: cell-based, m. tuberculosis.
In assay [4] the test system is MAC (strain Mycobacterium avium 9141). Put plainly: MAC infection of human monocyte-derived macrophages, direct observation and counting of infected cells. The format is cell-based. The note with it: AAT 5.0 mg/ml-exposed MDM, control MDM (no AAT) 17%.
Another assay relates to interleukin-1 beta. Put plainly: Stimulated interleukin-1 beta production in whole human blood. The format is cell-based. The settings on record: whole human blood diluted 1:4, heat-killed Staphylococcus epidermidis 1:1000, 24 hrs, all concentrations tested, FIG. 5. How it is done:
Design: Venipuncture was performed on 3 healthy volunteers using a 21-gauge needle, and the venous blood was aspirated into a heparinized tube. Blood was then aliquoted into 6 milliliter polypropylene tubes and diluted 1:4 with sterile RPMI tissue culture medium alone (Control), diluted 1:4 in medium containing heat-killed Staphylococcus epidermidis at a final concentration of 1:1000 as a stimulus (Staph), or into tubes containing Staphylococcus epidermidis and alpha-1-antitrypsin (AAT, Aralast® from Baxter). All cultures were then incubated ×24 hrs at 37° C./5% CO2). Following incubation, the samples were centrifuged ×1,500 g, and the supernatants collected. Supernatants were assayed for interleukin-1 beta concentration using a validated electrochemiluminescence apparatus that quantifies cytokine proteins.

In the case of `CC(C)[C@H](NC(=O)[C@@H]1CCCN1C(=O)[C@H](C)NC(=O)[C@H](C)N)C(=O)CCl` [AAT mimic, ala-ala-pro-val-chloromethyl ketone, reference compound] (H-AAPV-CH2Cl), the “effect on MAC infection of MDM” value in assay [1] is recorded as “confirm the AAT data”.
For α1-antitrypsin [AAT], the “percent of cells infected with m. tuberculosis” value in the assay with TB (strain H37RV) [2] was 4% and 6%. Also, the “TB counts per ml” value with TB (strain H37RV) [3] (AAT-exposed MDM cultures, control MDM cultures 1.6×10^5 per ml) was 0.57×10^5 per ml. In the assay on TB (strain H37RV) [3] (AAT-exposed versus control MDM cultures), the “inhibitory effect on cell-associated TB counts” value is reported as 64%. The “percent of cells infected” value in assay [4] is listed as 10%. In assay [1] (4 separate experiments), the “inhibition of infection of MDM with MAC (mean effect)” value is given as “approximately 55%”. In addition, in the assay with interleukin-1 beta, the “Staph-stimulated interleukin-1 beta production” value was “significantly inhibited”.
